Measured values reported in article PMC5079767 (Bioorganic & medicinal chemistry letters, 2016).
Like-named read-outs stand apart in the source and are kept apart here.

Tests used:
[1] = system: Escherichia coli, Bacillus subtilis, Mycobacterium smegmatis; conditions: cited from earlier work
[2] = molecular target: cysteine adenylation domain of HMWP2 (residues 1–1491) (Yersinia pestis, UniProt A0A2S9PH42); format: biochemical
[3] = system: Y. pestis; format: cell-based, Yersinia pestis
[4] = system: aminoacyl-tRNA synthetases; format: biochemical, rabbit
[5] = system: Y. pestis; conditions: cited from earlier work

Sequence of cysteine adenylation domain of HMWP2 (residues 1–1491) (A0A2S9PH42 1-1491 limits assumed): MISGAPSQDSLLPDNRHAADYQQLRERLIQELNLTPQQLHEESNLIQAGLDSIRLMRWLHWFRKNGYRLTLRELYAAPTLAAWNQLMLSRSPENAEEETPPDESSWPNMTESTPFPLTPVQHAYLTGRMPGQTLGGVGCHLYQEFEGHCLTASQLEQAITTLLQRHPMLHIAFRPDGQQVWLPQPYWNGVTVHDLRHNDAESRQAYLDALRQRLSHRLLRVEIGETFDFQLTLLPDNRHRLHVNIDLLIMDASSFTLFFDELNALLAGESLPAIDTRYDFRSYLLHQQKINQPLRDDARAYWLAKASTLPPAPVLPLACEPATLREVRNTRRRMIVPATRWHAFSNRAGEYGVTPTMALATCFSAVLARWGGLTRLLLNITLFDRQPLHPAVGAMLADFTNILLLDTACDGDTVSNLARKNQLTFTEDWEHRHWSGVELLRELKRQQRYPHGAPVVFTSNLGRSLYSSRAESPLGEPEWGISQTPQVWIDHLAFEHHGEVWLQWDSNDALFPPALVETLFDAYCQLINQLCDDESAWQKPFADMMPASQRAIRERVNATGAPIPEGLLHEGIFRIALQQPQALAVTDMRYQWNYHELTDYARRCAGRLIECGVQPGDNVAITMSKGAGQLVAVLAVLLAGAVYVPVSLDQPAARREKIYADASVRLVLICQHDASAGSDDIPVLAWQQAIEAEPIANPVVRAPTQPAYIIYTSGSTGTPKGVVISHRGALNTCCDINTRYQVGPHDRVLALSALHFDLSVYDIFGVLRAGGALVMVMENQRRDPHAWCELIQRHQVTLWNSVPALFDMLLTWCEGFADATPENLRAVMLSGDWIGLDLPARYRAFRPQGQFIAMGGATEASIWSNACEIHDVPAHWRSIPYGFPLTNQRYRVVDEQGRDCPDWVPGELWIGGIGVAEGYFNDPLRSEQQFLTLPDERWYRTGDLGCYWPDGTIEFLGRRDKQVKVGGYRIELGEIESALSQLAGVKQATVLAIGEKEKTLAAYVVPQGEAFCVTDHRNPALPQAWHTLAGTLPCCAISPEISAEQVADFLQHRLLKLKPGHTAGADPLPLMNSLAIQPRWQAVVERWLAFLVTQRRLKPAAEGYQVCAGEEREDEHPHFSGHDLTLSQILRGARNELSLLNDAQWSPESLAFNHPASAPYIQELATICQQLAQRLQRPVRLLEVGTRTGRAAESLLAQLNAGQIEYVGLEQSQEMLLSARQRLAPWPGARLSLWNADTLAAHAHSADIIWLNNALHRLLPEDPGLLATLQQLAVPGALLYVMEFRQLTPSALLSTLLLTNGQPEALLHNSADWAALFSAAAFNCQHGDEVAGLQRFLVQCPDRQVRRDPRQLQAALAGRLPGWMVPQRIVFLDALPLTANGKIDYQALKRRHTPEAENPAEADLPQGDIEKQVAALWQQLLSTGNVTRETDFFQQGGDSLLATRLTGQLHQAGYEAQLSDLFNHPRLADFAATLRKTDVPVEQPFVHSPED

## C[C@H](N)C(=O)NS(=O)(=O)OC[C@H]1O[C@@H](n2cnc3c(N)ncnc32)[C@H](O)[C@@H]1O [4a, alanyl-AMS]
[1]; E. coli, B. subtilis, M. smegmatis
  penetration of bacteria above the limits of detection: did not penetrate

## C[C@H](O)C(=O)NS(=O)(=O)OC[C@H]1O[C@@H](n2cnc3c(N)ncnc32)[C@H](O)[C@@H]1O [4b, lactyl-AMS]
[1]; all three strains (E. coli, B. subtilis, M. smegmatis), 100 µM extracellular concentration applied
  intracellular concentration: 28 to 53 µM

## Nc1ncnc2c1ncn2[C@@H]1O[C@H](COS(=O)(=O)NC(=O)[C@@H](N)CS)[C@@H](O)[C@H]1O [4c, cysteyl-AMS]
[2]
  increase in HMWP2 inhibition on inclusion of β-thio group: ≈ 2 orders of magnitude
  increase in inhibitory potency by β-thiol side chain: 30–60 fold

## Nc1ncnc2c1ncn2[C@@H]1O[C@H](COS(=O)(=O)NC(=O)[C@@H](O)CS)[C@@H](O)[C@H]1O [4d, α-hydroxy-cysteyl-AMS]
[2]
  IC50 relative to alanyl-AMS (4a): ≤ 15 fold
  increase in HMWP2 inhibition on inclusion of β-thio group: ≈ 2 orders of magnitude
  increase in inhibitory potency by β-thiol side chain: 30–60 fold

## Nc1ncnc2c1nc1n2[C@@H]2O[C@H](COS(=O)(=O)NC(=O)[C@@H](N)CCC1)[C@@H](O)[C@H]2O [5a, cyclo-alanyl-AMS]
[3]
  inhibition of yersiniabactin production: did not inhibit
[4]
  inhibitory activity in in vitro translation assay: inactive

## Nc1ncnc2c1nc1n2[C@@H]2O[C@H](COS(=O)(=O)NC(=O)[C@@H](O)CCC1)[C@@H](O)[C@H]2O [5b, cyclo-lactyl-AMS]
[4]
  inhibitory activity in in vitro translation assay: inactive

## salicyl-AMS
[5]
  inhibition of yersiniabactin production: blocks yersiniabactin production
